Biological target: HSD17B13 (Homo sapiens (Human), UniProt Q7Z5P4)
Test: HSD17B13 enzymatic inhibition assay (150 nM or 50 nM HSD17B13)
Assay type: biochemical
Conditions: 50 nM HSD17B13; read-out: Inhibition of 50 nM of HSD17B13 IC50

HSD17B13, sequence (Q7Z5P4 other isoform, or with tags, fused parts or gaps): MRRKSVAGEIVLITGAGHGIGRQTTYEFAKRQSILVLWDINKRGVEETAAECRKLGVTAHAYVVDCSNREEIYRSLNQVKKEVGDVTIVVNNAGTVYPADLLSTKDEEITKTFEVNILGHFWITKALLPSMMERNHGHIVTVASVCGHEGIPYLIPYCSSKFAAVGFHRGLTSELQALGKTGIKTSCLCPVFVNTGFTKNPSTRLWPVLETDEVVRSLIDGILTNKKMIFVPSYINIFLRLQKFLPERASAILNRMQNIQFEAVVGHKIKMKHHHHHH

**Q.** Which IC50 does the source give for `O=C(NC1c2ccc(OC(F)(F)F)cc2-c2cc(OC(F)(F)F)ccc21)c1ccc(C(F)(F)F)[nH]c1=O` [Compound 8A, N-(3,6-bis(trifluoromethoxy)-9H-fluoren-9-yl)-2-oxo-6-(trifluoromethyl)-1,2-dihydropyridine-3-carboxamide] here?
**A.** 6310 nM

**Q.** With `CCCC(NC(=O)c1ccc(C(F)(F)F)[nH]c1=O)c1ccc(C)cc1` (stereo not shown) [Compound 402, 2-oxo-N-(1-(p-tolyl)butyl)-6-(trifluoromethyl)-1,2-dihydropyridine-3-carboxamide] as the compound, how does the IC50 read?
**A.** 360 nM

**Q.** `O=C(NC(c1ccccc1)c1ccc(C2CCN(CC(F)(F)F)CC2)cc1)c1ccc(C(F)(F)F)[nH]c1=O` (stereo not shown) [Compound 114, 2-oxo-N-(phenyl(4-(1-(2,2,2-trifluoroethyl)piperidin-4-yl)phenyl)methyl)-6-(trifluoromethyl)-1,2-dihydropyridine-3-carboxamide] was tested. Which IC50 did it give?
**A.** 280 nM

**Q.** How did the IC50 turn out when `O=C(NC(c1ccccc1)c1ccc(C2=CCOC2)cc1)c1ccc(C(F)(F)F)[nH]c1=O` (stereo not shown) [Compound 87, N-((4-(2,5-dihydrofuran-3-yl)phenyl)(phenyl)methyl)-2-oxo-6-(trifluoromethyl)-1,2-dihydropyridine-3-carboxamide] was run?
**A.** 1130 nM

**Q.** Which IC50 does the source give for `Cc1ccc(C(CC2CCOCC2)NC(=O)c2ccc(C(F)(F)F)[nH]c2=O)cc1` (stereo not shown) [Compound 551, 2-oxo-N-(2-(tetrahydro-2H-pyran-4-yl)-1-(p-tolyl)ethyl)-6-(trifluoromethyl)-1,2-dihydropyridine-3-carboxamide] here?
**A.** 2690 nM

**Q.** How did the IC50 turn out when `O=C(Nc1cccc(O)c1)c1ccc(C(F)(F)F)[nH]c1=O` [Compound 224, N-(3-hydroxyphenyl)-2-oxo-6-(trifluoromethyl)-1,2-dihydropyridine-3-carboxamide] was run?
**A.** > 10000 nM

**Q.** How did the IC50 turn out when `Cc1ccc2c(c1)Oc1cccc(C)c1C2NC(=O)c1cc(CCN(C)C)c(C(F)(F)F)[nH]c1=O` (stereo not shown) [Compound 523, N-(1,6-dimethyl-9H-xanthen-9-yl)-5-(2-(dimethylamino)ethyl)-2-oxo-6-(trifluoromethyl)-1,2-dihydropyridine-3-carboxamide] was run?
**A.** > 10000 nM

**Q.** Which IC50 does the source give for `CCC[C@@H]1C[C@H](NC(=O)c2ccc(C(F)(F)F)[nH]c2=O)C[C@H](CCC)O1` [Compound 303, N-((2R,4R,6S)-2,6-dipropyltetrahydro-2H-pyran-4-yl)-2-oxo-6-(trifluoromethyl)-1,2-dihydropyridine-3-carboxamide] here?
**A.** 3060 nM

**Q.** With `Cc1ccc2c(c1)S(=O)(=O)c1cc(C)ccc1C2NC(=O)c1cc(CO)c(C(F)(F)F)[nH]c1=O` [Compound 462, N-(3,6-dimethyl-10,10-dioxido-9H-thioxanthen-9-yl)-5-(hydroxymethyl)-2-oxo-6-(trifluoromethyl)-1,2-dihydropyridine-3-carboxamide] as the compound, how does the IC50 read?
**A.** 140 nM

**Q.** `C=Cc1cccc(C(NC(=O)c2ccc(C(F)(F)F)[nH]c2=O)c2ccccc2)c1` (stereo not shown) [Compound 467, 2-oxo-N-(phenyl(3-vinylphenyl)methyl)-6-(trifluoromethyl)-1,2-dihydropyridine-3-carboxamide] was tested. Which IC50 did it give?
**A.** 990 nM

**Q.** Which IC50 does the source give for `Cc1ccc2c(c1)Sc1cc(C)ccc1C2NC(=O)c1cc(NC2CCCCC2)c(C(F)(F)F)[nH]c1=O` [Compound 431, 5-(cyclohexylamino)-N-(3,6-dimethyl-9H-thioxanthen-9-yl)-2-oxo-6-(trifluoromethyl)-1,2-dihydropyridine-3-carboxamide] here?
**A.** 130 nM

**Q.** For `COc1ccccc1C(NC(=O)c1ccc(C(F)(F)F)[nH]c1=O)c1ccc(C)cc1` (stereo not shown) [Compound 244, N-((2-methoxyphenyl)(p-tolyl)methyl)-2-oxo-6-(trifluoromethyl)-1,2-dihydropyridine-3-carboxamide], which IC50 is on record?
**A.** 290 nM

**Q.** For `O=C(NC(c1ccccc1)c1ccc2c(c1)CCNC2)c1ccc(C(F)(F)F)[nH]c1=O` (stereo not shown) [Compound 112, 2-oxo-N-(phenyl(1,2,3,4-tetrahydroisoquinolin-6-yl)methyl)-6-(trifluoromethyl)-1,2-dihydropyridine-3-carboxamide], which IC50 is on record?
**A.** > 10000 nM

**Q.** How did the IC50 turn out when `O=C(NC1CC(CO)Cc2ccccc21)c1ccc(C(F)(F)F)[nH]c1=O` (stereo not drawn) [Compound 264, N-(3-(hydroxymethyl)-1,2,3,4-tetrahydronaphthalen-l-yl)-2-oxo-6-(trifluoromethyl)-1,2-dihydropyridine-3-carboxamide] was run?
**A.** 9780 nM

**Q.** For `Cc1cc(C(F)(F)F)[nH]c(=O)c1C(=O)NC(c1ccccc1)c1ccc(Cl)cc1` (stereo not shown) [Compound 124, N-((4-chlorophenyl)(phenyl)methyl)-4-methyl-2-oxo-6-(trifluoromethyl)-1,2-dihydropyridine-3-carboxamide], which IC50 is on record?
**A.** 1400 nM

**Q.** With `CSc1cc(C)ccc1C(NC(=O)c1ccc(C(F)(F)F)[nH]c1=O)c1ccccc1` (stereo not shown) [Compound 540, N-((4-methyl-2-(methylthio)phenyl)(phenyl)methyl)-2-oxo-6-(trifluoromethyl)-1,2-dihydropyridine-3-carboxamide] as the compound, how does the IC50 read?
**A.** 1130 nM

**Q.** `Cc1ccc2c(c1)CCC2NC(=O)c1ccc(C(F)(F)F)[nH]c1=O` (stereo not shown) [Compound 238, N-(5-methyl-2,3-dihydro-1H-inden-1-yl)-2-oxo-6-(trifluoromethyl)-1,2-dihydropyridine-3-carboxamide] was tested. Which IC50 did it give?
**A.** 680 nM

**Q.** With `O=C(NC1CCCc2ccccc21)c1ccc(C(F)(F)F)[nH]c1=O` (stereo not shown) [Compound 132, 2-oxo-N-(1,2,3,4-tetrahydronaphthalen-1-yl)-6-(trifluoromethyl)-1,2-dihydropyridine-3-carboxamide] as the compound, how does the IC50 read?
**A.** 1450 nM

**Q.** Which IC50 does the source give for `Cc1ccc2c(c1)Sc1cc(C)ccc1C2NC(=O)c1cc(Br)c(C(F)(F)F)[nH]c1=O` [Compound 535, 5-bromo-N-(3,6-dimethyl-9H-thioxanthen-9-yl)-2-oxo-6-(trifluoromethyl)-1,2-dihydropyridine-3-carboxamide] here?
**A.** 50 nM

**Q.** With `O=C(NC(c1ccccc1OC(F)(F)F)c1ccccc1OC(F)(F)F)c1ccc(C(F)(F)F)[nH]c1=O` [Compound 79, N-(bis(2-(trifluoromethoxy)phenyl)methyl)-2-oxo-6-(trifluoromethyl)-1,2-dihydropyridine-3-carboxamide] as the compound, how does the IC50 read?
**A.** 2330 nM

**Q.** How did the IC50 turn out when `COc1ccc2c(c1)C(NC(=O)c1ccc(C(F)(F)F)[nH]c1=O)c1cc(OC)ccc1-2` [Compound 415, N-(2,7-dimethoxy-9H-fluoren-9-yl)-2-oxo-6-(trifluoromethyl)-1,2-dihydropyridine-3-carboxamide] was run?
**A.** 50 nM

**Q.** Which IC50 does the source give for `O=C(NC1CCCc2c(O)cccc21)c1ccc(SCc2cccc(C(F)(F)F)c2)[nH]c1=O` (stereo not shown) [Compound 261, N-(5-hydroxy-1,2,3,4-tetrahydronaphthalen-1-yl)-2-oxo-6-((3-(trifluoromethyl)benzyl)thio)-1,2-dihydropyridine-3-carboxamide] here?
**A.** 6870 nM

**Q.** `Cc1ccc2c(NC(=O)c3ccc(C(F)(F)F)[nH]c3=O)coc2c1` [Compound 380, N-(6-methylbenzofuran-3-yl)-2-oxo-6-(trifluoromethyl)-1,2-dihydropyridine-3-carboxamide] was tested. Which IC50 did it give?
**A.** > 10000 nM

**Q.** With `O=C(NC(c1ccncc1)c1ccncc1)c1ccc(C(F)(F)F)[nH]c1=O` [Compound 73, N-(di(pyridin-4-yl)methyl)-2-oxo-6-(trifluoromethyl)-1,2-dihydropyridine-3-carboxamide] as the compound, how does the IC50 read?
**A.** > 10000 nM

**Q.** For `Cc1ccc([C@H](NC(=O)c2ccc(C(F)(F)F)[nH]c2=O)[C@@H]2CCCOC2)cc1` [Compound 397, 2-oxo-N—((R)—((S)-tetrahydro-2H-pyran-3-yl)(p-tolyl)methyl)-6-(trifluoromethyl)-1,2-dihydropyridine-3-carboxamide], which IC50 is on record?
**A.** 2970 nM
